Measurements published in article PMC9739180, “Discovery of a Flavonoid FM04 as a Potent Inhibitor to Reverse P-Glycoprotein-Mediated Drug Resistance in Xenografts and Improve Oral Bioavailability of Paclitaxel” (International Journal of Molecular Sciences, 2022).

How the values were obtained:
BCRP = target: T1, BCRP (Homo sapiens, UniProt Q9UNQ0); assay: BCRP-modulating activity in HEK293/R2 cells (MTS); assay type: cell-based; details: 1 μM, HEK293/R2
T1 construct: expressed in transfected cells; host or cells: HEK293/R2
T1 sequence (Q9UNQ0 1-655): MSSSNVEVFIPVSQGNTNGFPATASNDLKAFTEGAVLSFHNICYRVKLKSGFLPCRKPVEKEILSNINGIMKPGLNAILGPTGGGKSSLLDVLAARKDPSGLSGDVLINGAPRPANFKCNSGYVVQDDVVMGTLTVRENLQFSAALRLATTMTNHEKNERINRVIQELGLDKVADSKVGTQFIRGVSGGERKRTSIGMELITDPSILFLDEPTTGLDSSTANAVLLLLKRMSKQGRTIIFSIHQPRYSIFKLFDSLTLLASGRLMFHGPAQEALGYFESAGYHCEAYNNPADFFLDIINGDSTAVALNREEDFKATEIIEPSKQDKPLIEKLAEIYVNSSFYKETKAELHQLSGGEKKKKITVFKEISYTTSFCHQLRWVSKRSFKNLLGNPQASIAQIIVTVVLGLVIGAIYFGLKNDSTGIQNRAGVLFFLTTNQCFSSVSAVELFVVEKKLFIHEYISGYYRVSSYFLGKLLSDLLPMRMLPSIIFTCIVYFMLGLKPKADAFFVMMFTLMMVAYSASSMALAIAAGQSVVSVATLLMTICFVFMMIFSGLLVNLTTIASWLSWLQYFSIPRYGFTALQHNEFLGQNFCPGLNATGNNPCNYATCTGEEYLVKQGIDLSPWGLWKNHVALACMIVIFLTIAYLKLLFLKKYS
Protocol: The final volume in each well of the 96-well plate was 200 μL. The plate was then incubated for 5 days at 37 °C. The cell viability was determined using an MTS assay as reported previously.

P-gp = P-gp (Homo sapiens, UniProt P08183); assay: Intracellular FM04 level in LCC6MDR and LCC6 cells (P-gp transport substrate test); assay type: cell-based; parameters: expressed in transfected cells; host or cells: MDA435/LCC6MDR (human melanoma); details: 1-10 µM, LCC6MDR vs LCC6
P-gp, sequence (P08183 whole entry): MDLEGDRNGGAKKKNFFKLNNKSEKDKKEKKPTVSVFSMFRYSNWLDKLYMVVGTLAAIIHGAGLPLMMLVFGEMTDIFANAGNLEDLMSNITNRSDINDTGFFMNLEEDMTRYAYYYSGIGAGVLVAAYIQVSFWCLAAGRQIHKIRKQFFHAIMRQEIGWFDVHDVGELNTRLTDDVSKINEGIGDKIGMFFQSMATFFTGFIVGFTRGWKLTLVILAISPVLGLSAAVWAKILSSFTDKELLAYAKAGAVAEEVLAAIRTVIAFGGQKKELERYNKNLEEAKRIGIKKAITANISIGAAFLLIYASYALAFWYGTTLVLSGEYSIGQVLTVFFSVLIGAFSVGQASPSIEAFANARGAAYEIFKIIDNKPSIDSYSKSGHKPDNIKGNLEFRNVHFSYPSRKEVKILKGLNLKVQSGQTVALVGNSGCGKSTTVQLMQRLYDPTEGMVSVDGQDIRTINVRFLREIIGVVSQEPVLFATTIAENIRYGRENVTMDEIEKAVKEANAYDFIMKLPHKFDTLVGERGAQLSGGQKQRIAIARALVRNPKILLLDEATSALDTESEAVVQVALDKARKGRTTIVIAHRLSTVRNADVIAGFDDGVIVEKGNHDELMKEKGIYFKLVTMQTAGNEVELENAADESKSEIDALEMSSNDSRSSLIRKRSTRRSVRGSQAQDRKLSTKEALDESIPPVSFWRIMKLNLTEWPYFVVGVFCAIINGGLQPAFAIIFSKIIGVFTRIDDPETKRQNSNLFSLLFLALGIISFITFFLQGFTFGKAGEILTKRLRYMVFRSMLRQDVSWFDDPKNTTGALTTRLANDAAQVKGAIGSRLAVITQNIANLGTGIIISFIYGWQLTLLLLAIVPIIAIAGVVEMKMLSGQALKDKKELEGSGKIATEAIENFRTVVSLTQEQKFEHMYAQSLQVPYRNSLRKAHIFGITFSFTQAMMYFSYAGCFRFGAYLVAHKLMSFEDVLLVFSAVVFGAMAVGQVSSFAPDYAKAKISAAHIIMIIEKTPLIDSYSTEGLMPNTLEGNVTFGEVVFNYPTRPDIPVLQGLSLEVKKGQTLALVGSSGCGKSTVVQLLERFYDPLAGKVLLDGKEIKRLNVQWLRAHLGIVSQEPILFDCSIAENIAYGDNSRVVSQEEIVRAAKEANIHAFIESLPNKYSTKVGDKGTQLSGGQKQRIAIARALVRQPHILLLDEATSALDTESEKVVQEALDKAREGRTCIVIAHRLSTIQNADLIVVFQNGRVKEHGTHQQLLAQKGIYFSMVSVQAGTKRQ
Protocol: N = 2–3 independent experiments. […] After incubation, the cells were lysed and spun down. […] N = 2–6 independent experiments. […] A 1% DMSO was a solvent control. […] N = 2–3 independent experiments.
P-gp is a transporter with broad substrate specificity. To explore whether FM04 can be pumped by P-gp and work as a competitive inhibitor to prevent the drug substrate from binding, the following experiment was performed. The intracellular level of FM04 was compared in P-gp overexpressing LCC6MDR cells and non-P-gp parental LCC6 cells after its treatment.

CYP2C8 and CYP3A4 = assay: PTX metabolism in human liver microsomes: PTX level; assay type: in vitro ADME; details: HLM; in the presence of NADPH, no inhibitor
Protocol: Figure 7 Mechanistic study of FM04 to increase the oral PTX absorption. (A) transepithelial permeability of PTX in Caco-2 transwell assay. When confluent monolayer of Caco2 cells was formed on the transwell, the permeability of PTX (10 μM) was studied with or without FM04 (10 μM). For apical to basolateral transport (A to B), compound was added at the apical side (donor) and samples of the medium collected at the basal side (receiver) at 0, 20, 40, 60, 80, 100 and 120 min and vice versa for basal to apical transport (B to A). The PTX level was determined using UPLC-MS/MS. The relative % of PTX was presented as mean ± standard error of mean. N = 2–3 independent experiments. Impact of FM04 on PTX metabolism. […] After incubation, the levels of PTX, metabolites 6α-hydroxpaclitaxel (6α-OHP) and p3′-hydroxpaclitaxel (p3-OHP) were determined by HPLC-MS/MS. (B) changes in PTX. (C) changes in 6α-OHP. (D) changes in p3-OHP. […]
Drug solutions of PTX and FM04 were prepared in methanol. […] PTX and PTX metabolites were immediately analyzed by UPLC-MS/MS on the same day.
[^13C6]-paclitaxel (CAS: 379688-61-6) was the internal standard (IS) and purchased from Alsachim. Fifteen microliters of 10 μg/mL internal standard (IS) was added to all samples and calibration standards for quantification. […] PTX and both metabolites were semi-quantified base on the peak area ratio of the analyte/internal standard.

[1] = tested on: human melanoma MDA435/LCC6 xenograft; assay: In vivo efficacy of oral co-administration in human melanoma MDA435/LCC6 xenograft; details: PTX 12 mg/kg I.V., (q1d × 4) × 2 rounds

Compound | reversal of BCRP-mediated topotecan resistance (BCRP) | Transport substrate of P-gp (P-gp) | reduction of PTX level (CYP2C8 and CYP3A4) [%] | Tumor inhibition on day 31 (%) [1] [%]
O=c1cc(-c2ccc(OCCOCCNCc3ccccc3)cc2)oc2ccccc12 [FM04, 2-(4-(2-(2-(benzylamino)ethoxy)ethoxy)phenyl)-4H-chromen-4-one] | did not reverse BCRP-mediated topotecan resistance | not a transport substrate of P-gp | – | –
CC(=O)O[C@H]1C(=O)[C@@]2(C)[C@H]([C@H](OC(=O)c3ccccc3)[C@]3(O)C[C@H](OC(=O)[C@H](O)[C@@H](NC(=O)c4ccccc4)c4ccccc4)C(C)=C1C3(C)C)[C@]1(OC(C)=O)CO[C@@H]1C[C@@H]2O [PTX, paclitaxel] | – | – | 50 | 97
